Read-outs that look alike come from different tables or passages of the source.
How the values were obtained:
[1] = target: SARS-Cov-2 3CLpro (Severe acute respiratory syndrome coronavirus 2, UniProt P0DTD1); test: biochemical; details: Table A, class symbols, read-out: SARS-Cov-2 (IC50)
[2] = Cytotoxicity in HeLa cells without addition of OC43 virus (in parallel); details: human, HeLa cells, without OC43 virus
[3] = in vitro; details: human
[4] = system: SARS-CoV-2 B.1.1.7 lineage; test: microbe, parasite or virus in culture; assay type: cell-based; details: Severe acute respiratory syndrome coronavirus 2, Table C, SARS-CoV-2 B.1.1.7 in A549-dual_ACE2_TMPRSS2 cells, read-out: A549-dual_ACE2_TMPRSS2 (EC50)
[5] = system: human beta-coronavirus OC43; test: OC43 Coronavirus Assay in HeLa cells (antiviral, cytopathic effect, cell-titer-glo); assay type: cell-based; details: Betacoronavirus 1, OC43, HeLa, Table B, OC43 coronavirus in HeLa cells, read-out: EC50

Structure (SMILES): CN(C(=O)c1cc2c(F)cc(F)c(F)c2[nH]1)[C@@H](CC1CC1)C(=O)N1C[C@@]2(C[C@H]1C#N)Oc1cc(F)cc(F)c1NC2=O [Compound 74]
- IC50 [1]: 20 to 200 nM
- CC50 at 6 days [2]: > 10000 nM
- CC50 [3]: > 1000 nM
- EC50 ([4]; class symbols): 100 to 1000 nM
- EC50 ([5]; cells given as a bound): > 10000 nM

Structure (SMILES): CN(C(=O)[C@H](CC1CC1)NC(=O)C(F)(F)F)[C@@H](CC1CC1)C(=O)N1C[C@@]2(C[C@H]1C#N)Oc1ccccc1CNC2=O [Compound 81, (S)—N—((S)-1-((2R,5'S)-5′-cyano-3-oxo-4,5-dihydro-3H-spiro[benzo[f][1,4]oxazepine-2,3′-pyrrolidin]-1′-yl)-3-cyclopropyl-1-oxopropan-2-yl)-3-cyclopropyl-N-methyl-2-(2,2,2-trifluoroacetamido)propenamide]
- IC50 [1]: < 20 nM
- CC50 at 6 days [2]: > 10000 nM
- CC50 [3]: > 1000 nM
- EC50 ([4]; class symbols): < 100 nM
- EC50 ([5]; class symbols): < 100 nM

Structure (SMILES): CN(C(=O)[C@H](CC1CC1)NC(=O)C(F)(F)F)[C@@H](CC1CC1)C(=O)N1C[C@]2(C[C@H]1C#N)C(=O)Nc1ccccc1S2(=O)=O [Compound 82]
- IC50 [1]: 20 to 200 nM
- CC50 at 6 days [2]: > 10000 nM
- CC50 [3]: > 1000 nM
- EC50 ([4]; cells given as a bound): > 1000 nM
- EC50 ([5]; class symbols): 100 to 1000 nM

Structure (SMILES): C[C@@H](NC(=O)C(F)(F)F)C(=O)N(C)[C@@H](CC1CC1)C(=O)N1C[C@@]2(C[C@H]1C#N)Oc1cc(F)cc(F)c1NC2=O [Compound 83]
- IC50 [1]: 20 to 200 nM
- CC50 at 6 days [2]: > 10000 nM
- CC50 [3]: > 1000 nM
- EC50 ([4]; class symbols): < 100 nM
- EC50 ([5]; class symbols): 100 to 1000 nM

Structure (SMILES): C[C@H](NC(=O)C(F)(F)F)C(=O)N(C)[C@@H](CC1CC1)C(=O)N1C[C@@]2(C[C@H]1C#N)Oc1cccnc1NC2=O [Compound 84]
- IC50 [1]: < 20 nM
- CC50 at 6 days [2]: > 10000 nM
- CC50 [3]: > 1000 nM
- EC50 ([4]; class symbols): < 100 nM
- EC50 ([5]; class symbols): 1000 to 10000 nM

Structure (SMILES): CN(C(=O)[C@H](CC(F)(F)F)NC(=O)C(F)(F)F)[C@@H](CC1CC1)C(=O)N1C[C@@]2(C[C@H]1C#N)Oc1cc(F)cc(F)c1NC2=O [Compound 85]
- IC50 [1]: < 20 nM
- CC50 at 6 days [2]: > 10000 nM
- CC50 [3]: > 1000 nM
- EC50 ([4]; class symbols): < 100 nM
- EC50 ([5]; class symbols): 100 to 1000 nM

Structure (SMILES): CN(C(=O)[C@H](CC(F)F)NC(=O)C(F)(F)F)[C@@H](CC1CC1)C(=O)N1C[C@@]2(C[C@H]1C#N)Oc1cc(F)cc(F)c1NC2=O [Compound 86]
- IC50 [1]: < 20 nM
- CC50 at 6 days [2]: > 10000 nM
- CC50 [3]: > 1000 nM
- EC50 ([4]; class symbols): < 100 nM
- EC50 ([5]; class symbols): 100 to 1000 nM

Structure (SMILES): CN(C(=O)[C@H](CC1CCC1)NC(=O)C(F)(F)F)[C@@H](CC1CC1)C(=O)N1C[C@@]2(C[C@H]1C#N)Oc1cc(F)cc(F)c1NC2=O [Compound 87]
- IC50 [1]: < 20 nM
- CC50 at 6 days [2]: > 10000 nM
- CC50 [3]: > 1000 nM
- EC50 ([4]; class symbols): < 100 nM
- EC50 ([5]; class symbols): 100 to 1000 nM

Structure (SMILES): CC[C@H](NC(=O)C(F)(F)F)C(=O)N(C)[C@@H](CC1CC1)C(=O)N1C[C@@]2(C[C@H]1C#N)Oc1cc(F)cc(F)c1NC2=O [Compound 88]
- IC50 [1]: < 20 nM
- CC50 at 6 days [2]: > 10000 nM
- CC50 [3]: > 1000 nM
- EC50 ([4]; class symbols): < 100 nM
- EC50 ([5]; class symbols): 100 to 1000 nM

Structure (SMILES): CN(C(=O)[C@H](CC(C)(C)C)NC(=O)C(F)(F)F)[C@@H](CC1CC1)C(=O)N1C[C@@]2(C[C@H]1C#N)Oc1cc(F)cc(F)c1NC2=O [Compound 89]
- IC50 [1]: < 20 nM
- CC50 at 6 days [2]: > 10000 nM
- CC50 [3]: > 1000 nM
- EC50 ([4]; class symbols): < 100 nM
- EC50 ([5]; class symbols): < 100 nM

Structure (SMILES): CN(C(=O)[C@@H](Cc1ccc(F)cc1)NC(=O)C(F)(F)F)[C@@H](CC1CC1)C(=O)N1C[C@@]2(C[C@H]1C#N)Oc1cc(F)cc(F)c1NC2=O [Compound 90]
- IC50 [1]: < 20 nM
- CC50 at 6 days [2]: > 10000 nM
- CC50 [3]: > 1000 nM
- EC50 ([4]; class symbols): < 100 nM
- EC50 ([5]; class symbols): < 100 nM

Structure (SMILES): CN(C(=O)C(C)(C)NC(=O)C(F)(F)F)[C@@H](CC1CC1)C(=O)N1C[C@@]2(C[C@H]1C#N)Oc1cc(F)cc(F)c1NC2=O [Compound 92]
- IC50 [1]: 200 to 2000 nM
- CC50 at 6 days [2]: > 10000 nM
- CC50 [3]: > 1000 nM
- EC50 ([4]; class symbols): < 100 nM
- EC50 ([5]; class symbols): < 100 nM

Structure (SMILES): CN1C(=O)[C@]2(C[C@@H](C#N)N(C(=O)[C@H](CC3CC3)N(C)C(=O)[C@H](CC3CC3)NC(=O)C(F)(F)F)C2)Oc2cc(F)cc(F)c21 [Compound 93]
- IC50 [1]: < 20 nM
- CC50 at 6 days [2]: > 10000 nM
- CC50 [3]: > 1000 nM
- EC50 ([4]; class symbols): < 100 nM
- EC50 ([5]; class symbols): < 100 nM

Structure (SMILES): C[C@H](NC(=O)C(F)(F)C(F)(F)F)C(=O)N(C)[C@@H](CC1CC1)C(=O)N1C[C@@]2(C[C@H]1C#N)Oc1cc(F)cc(F)c1NC2=O [Compound 95]
- IC50 [1]: < 20 nM
- CC50 at 6 days [2]: > 10000 nM
- CC50 [3]: > 1000 nM
- EC50 ([4]; class symbols): < 100 nM
- EC50 ([5]; class symbols): 1000 to 10000 nM

Structure (SMILES): CN(C(=O)c1cc2c(F)cc(F)c(F)c2[nH]1)[C@@H](CC1CC1)C(=O)N1C[C@@]2(C[C@H]1C#N)Oc1cccnc1NC2=O [Compound 96]
- IC50 [1]: < 20 nM
- CC50 at 6 days [2]: > 10000 nM
- CC50 [3]: > 1000 nM
- EC50 ([4]; class symbols): 100 to 1000 nM
- EC50 ([5]; class symbols): 1000 to 10000 nM

Structure (SMILES): CN(C(=O)c1cc2c(F)cc(F)c(F)c2[nH]1)[C@@H](CC1CC1)C(=O)N1C[C@@]2(C[C@H]1C#N)Oc1cccc(F)c1NC2=O [Compound 97]
- IC50 [1]: < 20 nM
- CC50 at 6 days [2]: > 10000 nM
- CC50 [3]: > 1000 nM
- EC50 ([4]; class symbols): 100 to 1000 nM
- EC50 ([5]; class symbols): < 100 nM

Structure (SMILES): C[C@H](NC(=O)C(F)(F)F)C(=O)N(C)[C@@H](CC1CC1)C(=O)N1C[C@@]2(C[C@H]1C#N)Oc1cccc(F)c1NC2=O [Compound 98]
- IC50 [1]: < 20 nM
- CC50 at 6 days [2]: > 10000 nM
- CC50 [3]: > 1000 nM
- EC50 ([4]; class symbols): < 100 nM
- EC50 ([5]; class symbols): 100 to 1000 nM

Structure (SMILES): C[C@H](NC(=O)C(F)(F)F)C(=O)N(C)[C@@H](CC1CC1)C(=O)N1C[C@@]2(C[C@H]1C#N)Oc1c(cccc1C1CC1)NC2=O [Compound 99]
- IC50 [1]: < 20 nM
- CC50 at 6 days [2]: > 10000 nM
- CC50 [3]: > 1000 nM
- EC50 ([4]; class symbols): < 100 nM
- EC50 ([5]; class symbols): 100 to 1000 nM

Structure (SMILES): CC(C)C[C@](C)(NC(=O)C(F)(F)F)C(=O)N(C)[C@@H](CC1CC1)C(=O)N1C[C@@]2(C[C@H]1C#N)Oc1cc(F)cc(F)c1NC2=O [Compound 100]
- IC50 [1]: 20 to 200 nM
- CC50 at 6 days [2]: > 10000 nM
- CC50 [3]: > 1000 nM
- EC50 ([4]; class symbols): 100 to 1000 nM
- EC50 ([5]; class symbols): < 100 nM

Structure (SMILES): CN(C(=O)[C@H](CC1CC1)N1CCOC1=O)[C@@H](CC1CC1)C(=O)N1C[C@@]2(C[C@H]1C#N)Oc1cc(F)cc(F)c1NC2=O [Compound 101]
- IC50 [1]: 20 to 200 nM
- CC50 at 6 days [2]: > 10000 nM
- CC50 [3]: > 1000 nM
- EC50 ([4]; class symbols): 100 to 1000 nM
- EC50 ([5]; class symbols): < 100 nM

Structure (SMILES): COCC[C@H](NC(=O)C(F)(F)F)C(=O)N(C)[C@@H](CC1CC1)C(=O)N1C[C@@]2(C[C@H]1C#N)Oc1cc(F)cc(F)c1NC2=O [Compound 103]
- IC50 [1]: < 20 nM
- CC50 at 6 days [2]: > 10000 nM
- CC50 [3]: > 1000 nM
- EC50 ([4]; class symbols): 100 to 1000 nM
- EC50 ([5]; class symbols): 1000 to 10000 nM

Structure (SMILES): C[C@H](NC(=O)C(F)(F)F)C(=O)N(C)[C@@H](CC1CC1)C(=O)N1C[C@]2(C[C@H]1C#N)C(=O)NCC2Oc1ccccc1 (stereo partly drawn) [Compound 104]
- IC50 [1]: 20 to 200 nM
- CC50 at 6 days [2]: > 10000 nM
- CC50 [3]: > 1000 nM
- EC50 ([4]; class symbols): 100 to 1000 nM
- EC50 ([5]; class symbols): < 100 nM

Structure (SMILES): CCN(C(=O)[C@H](C)NC(=O)C(F)(F)F)[C@@H](CC(C)C)C(=O)N1C[C@@]2(C[C@H]1C#N)Oc1cc(F)cc(F)c1NC2=O [Compound 106]
- IC50 [1]: < 20 nM
- CC50 at 6 days [2]: > 10000 nM
- CC50 [3]: > 1000 nM
- EC50 ([4]; class symbols): 100 to 1000 nM
- EC50 ([5]; class symbols): 100 to 1000 nM

Structure (SMILES): CN(C(=O)[C@@H](CC1CC1)n1cc(C2CC2)nn1)[C@@H](CC1CC1)C(=O)N1C[C@@]2(C[C@H]1C#N)Oc1cc(F)cc(F)c1NC2=O [Compound 107, (R)—N—((S)-1-((2R,5'S)-5′-cyano-5,7-difluoro-3-oxo-3,4-dihydrospiro[benzo[b][1,4]oxazine-2,3′-pyrrolidin]-1′-yl)-3-cyclopropyl-1-oxopropan-2-yl)-3-cyclopropyl-2-(4-cyclopropyl-1H-1,2,3-triazol-1-yl)-N-methylpropanamide]
- IC50 [1]: < 20 nM
- CC50 at 6 days [2]: > 10000 nM
- CC50 [3]: > 1000 nM
- EC50 ([4]; class symbols): 100 to 1000 nM
- EC50 ([5]; class symbols): 1000 to 10000 nM
